This is an account of results in ChEMBL document CHEMBL1201862, “PubChem BioAssay data set” (2004).

Molecules are shown by their SMILES.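 A five-concentration, 48-hour dose response in 96-well plates underlies each endpoint, interpolated linearly between surrounding concentrations. GI50 = concentration required for 50% inhibition of growth.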 The source made the active and inactive calls. No stated cut-off is given here; in the data, active = GI50 up to about 1.1 µM and inactive = higher. Bounds are passed on as bounds.

Some test systems named below: SW-620; HT-29; HCT-116; NCI-H226; DLD-1; SNB-75; Malme-3M; M19-MEL; SK-MEL-2; NCI-H522; HCC 2998; MDA-MB-231; SR; DMS-114; HOP-92; SN12C; A549; UO-31; Hs-578T; HL-60.
Experiment in all cases: growth of human tumour cells (NCI), 48 h

For the molecule `Cc1ccc2oc(=O)c3c(O)c4cccc(OC5OC(C)C6O[C@@H](c7ccccc7)OC6C5OC5OC(C)C(O)C(O)C5O)c4c4oc(=O)c1c2c34` (stereo partly drawn), the GI50 with SW-620 is 0.0486 µM (active); in the test on HT-29 it was 0.0472 µM (active); in the test with HCT-116, < 0.0171 µM (active); in the test with NCI-H226, 0.0327 µM (active); in the test on DLD-1, 0.156 µM (active); in the test with SNB-75 it was 0.0492 µM (active). Further, the GI50 was 0.441 µM (active) with Malme-3M; 0.11 µM (active) in the test on M19-MEL; 0.196 µM (active) in the test with SK-MEL-2; 0.0574 µM (active) in the test with NCI-H522; 0.0442 µM (active) in the test with HCC 2998; 0.197 µM (active) in the test with MDA-MB-231. The GI50 with SR was < 0.011 µM (active); in the test with DMS-114 it was 0.262 µM (active); in the test with HOP-92, 0.843 µM (active); in the test with SN12C it was 0.051 µM (active); in the test with A549, 0.0354 µM (active); with UO-31 it was 1.14 µM (inactive). Further, the GI50 in the test on Hs-578T is 0.119 µM (active); with HL-60, 0.0536 µM (active).
Consider `CN(C)CC1CC/C(=C\c2ccc3c(c2)OCO3)C1=O` (stereo not drawn), for which the GI50 with SW-620 was 6.4 µM (inactive); with HT-29, 14.5 µM (inactive); in the test on HCT-116, 6.75 µM (inactive); with NCI-H226, 20.4 µM (inactive); with DLD-1, 6.84 µM (inactive); in the test with SNB-75 it was 5.53 µM (inactive). Also, the GI50 in the test on Malme-3M was 9.46 µM (inactive); in the test on M19-MEL, 16.4 µM (inactive); with SK-MEL-2, 13 µM (inactive); in the test with NCI-H522, 3.89 µM (inactive); in the test on HCC 2998 it was 22.1 µM (inactive); in the test on MDA-MB-231, 2.38 µM (inactive). The GI50 with SR is 2.82 µM (inactive); with DMS-114 it was 18.4 µM (inactive); with HOP-92 it was 15.1 µM (inactive); with SN12C, 7.89 µM (inactive); with A549 it was 28.2 µM (inactive); with UO-31 it was 10.6 µM (inactive). Further, the GI50 in the test with Hs-578T was 4.38 µM (inactive); in the test on HL-60, 2.56 µM (inactive).
As for `COC1=C(C(=O)OC(C)(C)C)C23CCCCC2(C(C(=O)OC(C)(C)C)=C(OC)C3C(=O)OC(C)(C)C)C1C(=O)OC(C)(C)C` (stereo not drawn), the GI50 was 60.3 µM (inactive) with SW-620; 18.5 µM (inactive) in the test with HT-29; 14.2 µM (inactive) in the test on HCT-116; 42.7 µM (inactive) in the test on NCI-H226; 39.9 µM (inactive) in the test on DLD-1; 84.5 µM (inactive) in the test on SNB-75. The GI50 in the test on Malme-3M was 55.8 µM (inactive); with M19-MEL, 25 µM (inactive); in the test with SK-MEL-2, 4.18 µM (inactive); in the test with NCI-H522, 11.6 µM (inactive); with HCC 2998, 53.6 µM (inactive); in the test with SR, 19.6 µM (inactive). Also, the GI50 in the test on DMS-114 is 9.84 µM (inactive); with HOP-92, 7.05 µM (inactive); in the test on SN12C, 38.2 µM (inactive); in the test on A549 it was 23 µM (inactive); in the test with UO-31, 9.35 µM (inactive); with HL-60, 6.81 µM (inactive).
